{"source": "ChEMBL document CHEMBL1142134", "about": "“Characterization of squalene epoxidase of Saccharomyces cerevisiae by applying terbinafine-sensitive variants” (2007)", "key": {"Saccharomyces cerevisiae [1]": {"tested_on": "Saccharomyces cerevisiae", "experiment": "Increased sensitivity to growth inhibition in Saccharomyces cerevisiae KLN1 carrying erg1 pR269G allele after 24 hrs relative to wild type at 30 degC", "type": "functional"}, "Saccharomyces cerevisiae [2]": {"tested_on": "Saccharomyces cerevisiae", "experiment": "Increased sensitivity to growth inhibition in Saccharomyces cerevisiae KLN1 carrying erg1 pL37P allele after 24 hrs relative to wild type at 30 degC", "type": "functional"}, "Saccharomyces cerevisiae [3]": {"tested_on": "Saccharomyces cerevisiae", "experiment": "Growth inhibition in Saccharomyces cerevisiae KLN1 carrying erg1 pL37P allele at 0.2 ug/ml after 24 hrs at 30 degC", "type": "functional, organism-based"}, "Saccharomyces cerevisiae [4]": {"tested_on": "Saccharomyces cerevisiae", "experiment": "Growth inhibition in Saccharomyces cerevisiae KLN1 carrying erg1 pG30S allele at 0.5 ug/ml after 24 hrs at 30 degC", "type": "functional, organism-based"}, "Saccharomyces cerevisiae [5]": {"tested_on": "Saccharomyces cerevisiae", "experiment": "Growth inhibition in Saccharomyces cerevisiae KLN1 carrying erg1 pR269G allele at 1 ug/ml after 24 hrs st 30 degC", "type": "functional, organism-based"}}, "note": "Active and inactive are the calls of the source. The rule behind the calls is not given here.", "data": [{"smiles": "CC(=O)N1CCN(c2ccc(OCC3COC(Cn4ccnc4)(c4ccc(Cl)cc4Cl)O3)cc2)CC1", "note": "(centres undefined) [KETOCONAZOLE]", "values": [{"measurement": "Fold change", "setting": "Saccharomyces cerevisiae [1]", "result": 2}, {"measurement": "Fold change", "setting": "Saccharomyces cerevisiae [2]", "result": 5}]}, {"smiles": "CN(C/C=C/c1ccccc1)Cc1cccc2ccccc12", "note": "[NAFTIFINE]", "values": [{"measurement": "Fold change", "setting": "Saccharomyces cerevisiae [1]", "result": ">10"}, {"measurement": "Fold change", "setting": "Saccharomyces cerevisiae [2]", "result": ">25"}]}, {"smiles": "CN(C/C=C/C#CC(C)(C)C)Cc1cccc2ccccc12", "note": "[TERBINAFINE]", "values": [{"measurement": "Fold change", "setting": "Saccharomyces cerevisiae [1]", "result": ">5"}, {"measurement": "Activity", "setting": "Saccharomyces cerevisiae [3]", "result": "Active"}, {"measurement": "Activity", "setting": "Saccharomyces cerevisiae [4]", "result": "Active"}, {"measurement": "Fold change", "setting": "Saccharomyces cerevisiae [2]", "result": ">10"}, {"measurement": "Activity", "setting": "Saccharomyces cerevisiae [5]", "result": "Active"}]}]}
